The values that follow come from patent US20230066882A1, “Stable Reporter Flavivirus” (priority 2021, published 2023).

This experiment concerns panel of stable reporter viruses (DENV1, DENV2, DENV3, DENV4, ZIKV, YFV, JEV). The format is cell-based.

For `C#C[C@@]1(O)[C@H](O)[C@@H](CO)O[C@H]1n1ccc2c(N)ncnc21` [NITD008], the EC50 values result is “potent” and the “luciferase expression compared to control” value is recorded as “decreased luciferase expression”.
